Results from ChEMBL document CHEMBL1158912, “Structure and in vitro antiviral activity of sesquiterpene glycosides from Calendula arvensis” (J Nat Prod, 1990).
In brackets after ≈: the same amount, converted by molar mass.

What was measured:
[1] = Cytotoxicity against golden hamster CER cells assessed as cell viability at 20 ug/mL after 48 hrs by neutral red assay; type: cell-based, Mesocricetus auratus
[2] = system: rhinovirus A1B; experiment: Antiviral activity against HRV1B infected in human HeLa cells assessed as inhibition of virus-induced cytopathicity at 20 ug/ml after 48 hrs; type: functional, Human rhinovirus 1B; design: scale not given: the % may be the effect or the level left
[3] = system: HeLa; experiment: Cytotoxicity against human HeLa cells assessed as cell viability at 100 ug/mL after 48 hrs by neutral red assay; type: cell-based
[4] = system: Vesicular stomatitis virus; experiment: Antiviral activity against VSV infected in CER cells assessed as reduction in plaque formation at 4 ug/ml after 48 hrs by neutral red assay; type: functional; design: scale not given: the % may be the effect or the level left
[5] = system: Vesicular stomatitis virus; experiment: Antiviral activity against VSV infected in CER cells assessed as reduction in plaque formation at 20 ug/ml after 48 hrs by neutral red assay; type: functional; design: scale not given: the % may be the effect or the level left
[6] = system: rhinovirus A1B; experiment: Antiviral activity against HRV1B infected in human HeLa cells assessed as inhibition of virus-induced cytopathicity at 4 ug/ml after 48 hrs; type: functional, Human rhinovirus 1B; design: scale not given: the % may be the effect or the level left
[7] = system: Vesicular stomatitis virus; experiment: Antiviral activity against VSV infected in CER cells assessed as reduction in plaque formation after 48 hrs by neutral red assay; type: functional
[8] = system: Vesicular stomatitis virus; experiment: Antiviral activity against VSV infected in CER cells assessed as reduction in plaque formation at 0.8 ug/ml after 48 hrs by neutral red assay; type: functional; design: scale not given: the % may be the effect or the level left
[9] = system: HeLa; experiment: Cytotoxicity against human HeLa cells assessed as cell viability at 20 ug/mL after 48 hrs by neutral red assay; type: cell-based
[10] = Cytotoxicity against golden hamster CER cells assessed as cell viability at 100 ug/mL after 48 hrs by neutral red assay; type: cell-based, Mesocricetus auratus
[11] = system: rhinovirus A1B; experiment: Antiviral activity against HRV1B infected in human HeLa cells assessed as inhibition of virus-induced cytopathicity at 0.8 ug/ml after 48 hrs; type: functional, Human rhinovirus 1B; design: scale not given: the % may be the effect or the level left
[12] = system: rhinovirus A1B; experiment: Antiviral activity against HRV1B infected in human HeLa cells assessed as inhibition of virus-induced cytopathicity at 50 ug/ml after 48 hrs; type: functional, Human rhinovirus 1B; design: scale not given: the % may be the effect or the level left
[13] = system: Vesicular stomatitis virus; experiment: Antiviral activity against VSV infected in CER cells assessed as reduction in plaque formation at 100 ug/ml after 48 hrs by neutral red assay; type: functional; design: scale not given: the % may be the effect or the level left
[14] = system: rhinovirus A1B; experiment: Antiviral activity against HRV1B infected in human HeLa cells assessed as inhibition of virus-induced cytopathicity at 100 ug/ml after 48 hrs; type: functional, Human rhinovirus 1B; design: scale not given: the % may be the effect or the level left
[15] = system: Vesicular stomatitis virus; experiment: Antiviral activity against VSV infected in CER cells assessed as reduction in plaque formation at 50 ug/ml after 48 hrs by neutral red assay; type: functional; design: scale not given: the % may be the effect or the level left

For `C/C=C(\C)C(=O)O[C@H]1[C@H](O[C@]2(C)CC[C@@H]3[C@H]([C@@H]4[C@H](C)CC[C@@H]42)C3(C)C)O[C@H](C)[C@H](O)[C@@H]1O`, the Activity [1] was “Non-toxic”, the Activity [2] was 0% and the Activity [3] was “Non-toxic”. The Activity [4] was 13%, the Activity [5] was 22% and the Activity [6] was 0%. The MIC50 [7] was greater than 20 µg/mL, the Activity [8] was 0% and the Activity [9] was “Non-toxic”. The Activity [10] was “Non-toxic” and the Activity [11] was 0%.
In the case of `CCC(C)C(=O)O[C@H]1[C@H](O[C@]2(C)CC[C@@H]3[C@H]([C@@H]4[C@H](C)CC[C@@H]42)C3(C)C)O[C@H](C)[C@H](O)[C@@H]1O` (some centres undefined), the Activity [1] was “Non-toxic”, the Activity [2] was 0% and the Activity [3] was “Non-toxic”. The Activity [4] was 20%, the Activity [5] was 30% and the Activity [6] was 0%. For the same compound, the MIC50 [7] was greater than 20 µg/mL, the Activity [8] was 5% and the Activity [9] was “Non-toxic”. The Activity [10] was “Non-toxic” and the Activity [11] was 0%.
In the case of `CC(=O)O[C@H]1[C@H](O[C@]2(C)CC[C@@H]3[C@H]([C@@H]4[C@H](C)CC[C@@H]42)C3(C)C)O[C@H](C)[C@H](O)[C@@H]1O`, the Activity [1] was “Non-toxic”, the Activity [2] was 0% and the Activity [3] was “Non-toxic”. It also gave an Activity [4] of 7%, an Activity [5] of 10% and an Activity [6] of 0%. The MIC50 [7] was greater than 20 µg/mL, the Activity [8] was 0% and the Activity [9] was “Non-toxic”. For the same compound, the Activity [10] was “Non-toxic” and the Activity [11] was 0%.
For `CC/C(C)=C\C(=O)O[C@H]1[C@H](O[C@]2(C)CC[C@@H]3[C@H]([C@@H]4[C@H](C)CC[C@@H]42)C3(C)C)O[C@H](C)[C@H](O)[C@@H]1O`, the Activity [1] was “Non-toxic”, the Activity [2] was 0% and the Activity [3] was “Non-toxic”. It also gave an Activity [4] of 18%, an Activity [5] of 22% and an Activity [6] of 0%. For the same compound, the MIC50 [7] was greater than 20 µg/mL, the Activity [8] was 5% and the Activity [9] was “Non-toxic”. For the same compound, the Activity [10] was “Non-toxic” and the Activity [11] was 0%.
With `CC(C)C(=O)O[C@H]1[C@H](O[C@]2(C)CC[C@@H]3[C@H]([C@@H]4[C@H](C)CC[C@@H]42)C3(C)C)O[C@H](C)[C@H](O)[C@@H]1O` the Activity [1] was “Non-toxic”, the Activity [2] was 0% and the Activity [3] was “Non-toxic”. For the same compound, the Activity [4] was 0%, the Activity [5] was 9% and the Activity [6] was 0%. The MIC50 [7] was greater than 20 µg/mL, the Activity [8] was 0% and the Activity [9] was “Non-toxic”. The Activity [10] was “Non-toxic” and the Activity [11] was 0%.
In the case of `C[C@@H]1CC[C@H]2[C@@H]1[C@H]1[C@@H](CC[C@@]2(C)O[C@@H]2O[C@H](C)[C@H](O)[C@H](O)[C@H]2O)C1(C)C`, the Activity [1] was “Non-toxic”, the Activity [2] was 0% and the Activity [3] was “Non-toxic”. The Activity [4] was 19%, the Activity [5] was 73% and the Activity [6] was 0%. For the same compound, the MIC50 [7] was 14 µg/mL (≈ 38 µM), the Activity [8] was 8% and the Activity [9] was “Non-toxic”. For the same compound, the Activity [10] was “Non-toxic” and the Activity [11] was 0%.
For `CC(C)[C@@H]1CC[C@@H](C)C23CC[C@@](C)(O[C@@H]4O[C@H](C)[C@H](O)[C@H](O)[C@H]4O)[C@@H]2[C@@H]13` (some centres undefined) [EPICUBEBOL GLYCOSIDE], the Activity [1] was “Non-toxic”, the Activity [12] was 0% and the Activity [2] was 0%. The Activity [3] was “Non-toxic”, the Activity [4] was 0% and the Activity [13] was 100%. It also gave an Activity [5] of 4%, an Activity [6] of 0% and an MIC50 [7] of 36 µg/mL (≈ 97.7 µM). For the same compound, the Activity [14] was 25%, the Activity [9] was “Non-toxic” and the Activity [10] was “Non-toxic”. For the same compound, the Activity [15] was 90%.
